Experimental data as given in US4605670A, “Method for percutaneously administering metoclopramide” (priority 1984, dated 1986).
Counter-ions that a name gives are not always drawn.

Assay type: in vitro ADME, male albino rats
Text: Rat full thickness skins were used in the diffusion cell method of Michaels, AlChE Journal, 21 [5], 985-996, (1975). The rat skin was mounted in the diffusion cell in a vertical position between the upstream and the downstream compartments; the exposed area of the skin approximated 4.15 cm^2.
The skin was excised from the shaved abdominal site of male albino rats weighing 250~300 g, and washed with normal saline solution after the subcutaneous fat was carefully removed with scissors.
An MCP solution of known concentration was added to the upper compartment of the cell, which was exposed to the epithelial side of the skin and a normal saline solution was placed in the lower compartment.
The penetration rate was studied in a thermostated bath at 30° C. At appropriate intervals samples were withdrawn from the lower compartment and subsequently analyzed for MCP concentration by standard analytical methods. This regimen was used in Examples 1 to 10.
Unless otherwise indicated, in all of the examples, the active agent was MCP.HCl, the MCP.HCl flux is given in terms of ug/cm^2 /8hrs, 25 volume percent of the adjuvant with respect to the adjuvant plus solvent volume was used in combination with 2.5 weight percent of active agent based on the weight of the adjuvant plus solvent; otherwise, all percents are volume percents based on adjuvant, solvent or adjuvant plus solvent volume, depending on the system.
Compositions were typically prepared by merely mixing the adjuvant and solvent together, then mixing the MCP.HCl in the mixture and then, if used, mixing the diol therein. The order of mixing is not important.

| Compound | MCP.HCl Flux [ug/cm^2 /8 hrs] | MCP HCl flux with increasing MCP HCl concentration |
| --- | --- | --- |
| Hydroxy propyl cellulose | 843 |  |
| Hydroxy ethyl cellulose | 1296 |  |
| CCN(CC)CCNC(=O)c1cc(Cl)c(N)cc1OC [MCP HCl, metoclopramide.HCl, reference compound] |  | Flux increases linearly with increasing drug concentration |
